Data: patent US20240252474A1, “METHODS AND COMPOSITIONS COMPRISING A CARDIO-TOLERATED HDAC INHIBITOR” (HUYABIO International, LLC, priority 2023, published 2024)

Assay: Phase 1b safety and tolerability of HBI-8000 combined with nivolumab (DLTs, TEAEs)
Type: in vivo
Conditions: for Dose-limiting toxicity (DLT): + nivolumab, 28 days
Description: The present example, was a Phase Ib/2 open-label dose finding study for HBI-8000 (also referred to in the art as “chidamide” or “tucidinostat” and also referred to herein as a compound of formula I) in combination with nivolumab in patients with advanced solid tumors, including melanoma, RCC (renal cell carcinoma), and NSCLC (non-small cell lung cancer). This study was conducted in accordance with Good Clinical Practice guidelines and the Declaration of Helsinki and with assurance/approval from the US Department of Health and Human Services; the protocol was approved by the institutional review boards or ethics committees of all participating sites. All patients provided written informed consent to participate before enrollment. […]
HBI-8000 at three dose levels (20 mg, 30 mg, and 40 mg) given orally twice a week (BIW) were evaluated. Doses were taken approximate 30 minutes after a meal. The starting dose (20 mg) was selected based on pharmacokinetic profiles established for monotherapy in Japanese patients with T-cell lymphoma.
The decision to escalate the dose was based on the conventional 3+3 design and observed incidences of dose-limiting toxicities (DLTs). Each treatment cycle was defined as 28 days. […] Subjects experiencing DLT within the first two weeks after having received 100% of assigned dose of HBI-8000 are also evaluable for DLT. Unacceptable toxicities were defined as grade 3 or higher non-hematologic and hematologic toxicities with clinical complications. Unacceptable toxicities observed over the first 28 days following HBI-8000 administration were considered as DLTs. […] HBI-8000 administration continued until disease progression or unacceptable toxicity was observed. The efficacy of the combination was further evaluated in an expanded cohort of selected patient populations at RP2D based on an objective response rate according to Response Evaluation Criteria in Solid Tumors (RECIST) version 1.1 criteria, progression-free survival, and duration of responses.
Safety evaluations included physical examinations, vital signs, ECGs, ECOG performance status, and laboratory tests.
Statistical analyses of safety, tolerability, and anti-tumor activity were primarily descriptive in nature. Toxicities were tabulated by type and grade. The safety population included all patients who received ≥1 dose of HBI-8000 and nivolumab. Continuous variables were summarized using descriptive statistics and categorical variables were summarized with number and percentage at each category. Pharmacokinetic parameters were derived using noncompartmental methods with Phoenix® WinNonlin® Version 6.4 (Certara, L. P., Princeton, NJ, USA).

[1] = 40 mg HBI-8000 BIW + nivolumab, N = 7
[2] = 20, 30 and 40 mg HBI-8000 + nivolumab, N = 17

## Nc1cc(F)ccc1NC(=O)c1ccc(CNC(=O)/C=C/c2cccnc2)cc1 [HBI-8000, N-(2-amino-4-fluorophenyl)-4-[[[(2E)-1-oxo-3-(3-pyridinyl)-2-propen-1-yl]amino]methyl]benzamide]
[1]
  Platelet count decreased, Related HBI, Any G: 2 (29) n (%)
  Pleural effusion, All, G < 3: 2 (29) n (%)
  SAE related to HBI-8000 & Nivolumab, number of subjects: 0 n
  SAE related to HBI-8000 alone, number of subjects: 0 n
  TEAE related to HBI-8000 & Nivolumab, number of subjects: 3 n
  TEAE related to HBI-8000 alone, number of subjects: 6 n
  TEAE resulting in discontinuation of HBI-8000 alone, number of subjects: 2 n
  TEAE resulting in discontinuation of both HBI-8000 and Nivo, number of subjects: 2 n
  Vomiting, All, G < 3: 2 (29) n (%)
  Vomiting, Related Both, Any G: 2 (29) n (%)
  Weight decreased, All, G < 3: 1 (14) n (%)
  Weight decreased, Related Both, Any G: 1 (14) n (%)
  White blood cell count decreased, All, G < 3: 3 (43) n (%)
  White blood cell count decreased, Related Both, Any G: 1 (14) n (%)
  White blood cell count decreased, Related HBI, Any G: 2 (29) n (%)
20, 30, 40 mg BIW + nivolumab
  Incidence of TEAE related to HBI-8000 alone versus dose: appeared to increase with escalating HBI-8000 dose
[2]
  Alanine aminotransferase increased, Total: 4 (24) n (%)
  Anaemia, Total: 8 (47) n (%)
  Aspartate aminotransferase increased, Total: 4 (24) n (%)
  Atrial fibrillation, Total: 4 (24) n (%)
  Back pain, Total: 4 (24) n (%)
  Contusion, Total: 4 (24) n (%)
  Decreased appetite, Total: 9 (53) n (%)
  Dehydration, Total: 5 (29) n (%)
  Diarrhoea, Total: 7 (41) n (%)
  Dizziness, Total: 5 (29) n (%)
  Dyspnoea, Total: 9 (53) n (%)
  Fall, Total: 4 (24) n (%)
  Fatigue, Total: 10 (59) n (%)
  Headache, Total: 4 (24) n (%)
  Hypocalcaemia, Total: 6 (35) n (%)
  Hypokalemia, Total: 5 (29) n (%)
  Hypophosphataemia, Total: 5 (29) n (%)
  Hypotension, Total: 5 (29) n (%)
  Hypoxia, Total: 4 (24) n (%)
  Lipase increased, Total: 5 (29) n (%)
  Lymphocyte count decreased, Total: 5 (29) n (%)
  Nausea, Total: 8 (47) n (%)
  Neutrophil count decreased, Total: 4 (24) n (%)
  Non-cardiac chest pain, Total: 4 (24) n (%)
  Oedema peripheral, Total: 7 (41) n (%)
  Platelet count decreased, Total: 7 (41) n (%)
  Pleural effusion, Total: 5 (29) n (%)
  Vomiting, Total: 4 (24) n (%)
  Weight decreased, Total: 7 (41) n (%)
  White blood cell count decreased, Total: 5 (29) n (%)
20-mg dose cohort, 3 DLT-evaluable patients
  Dose-limiting toxicity (DLT): None
30-mg BIW dose cohort, 3 + 3 DLT-evaluable patients
  Dose-limiting toxicity (DLT): None and No DLT
40-mg cohort, 6 DLT-evaluable patients, RCC patient
  Patients with DLT: Grade 3 fatigue on days of HBI-8000 administration: 1 patient
40-mg cohort, 6 DLT-evaluable patients, melanoma patient
  Patients with DLT: Grade 3 headache after first dose and grade 3 diarrhea after third dose: 1 patient
Total, all dose levels, N = 17
  Any SAE, number of subjects: 11 n
  Any TEAE, number of subjects: 17 n
  TEAE related to HBI-8000 & Nivolumab, number of subjects: 11 n
  TEAE related to HBI-8000 alone, number of subjects: 10 n
  TEAE resulting in discontinuation of HBI-8000 alone, number of subjects: 5 n
  TEAE resulting in discontinuation of both HBI-8000 and Nivo, number of subjects: 3 n
All dose levels, N = 17
  Patients who died of TEAE (unrelated to HBI-8000 or nivolumab): One
  Patients with Grade 3 or higher TEAEs: 15 patients
  Patients with only Grade 1 and 2 TEAEs: Two
  Subjects with TEAEs attributed to the combination and TEAEs associated with HBI-8000 alone: Six
In combination with nivolumab
  Recommended phase II dose (RP2D): 30 mg BIW
Oral BIW in combination with nivolumab
  Maximum tolerated dose (MTD): < 40 mg
